Molecular target: MDM2 (Homo sapiens, UniProt Q00987)
Experiment: HTRF MDM2-p53 binding (displacement) assay

MDM2, sequence (Q00987 whole entry): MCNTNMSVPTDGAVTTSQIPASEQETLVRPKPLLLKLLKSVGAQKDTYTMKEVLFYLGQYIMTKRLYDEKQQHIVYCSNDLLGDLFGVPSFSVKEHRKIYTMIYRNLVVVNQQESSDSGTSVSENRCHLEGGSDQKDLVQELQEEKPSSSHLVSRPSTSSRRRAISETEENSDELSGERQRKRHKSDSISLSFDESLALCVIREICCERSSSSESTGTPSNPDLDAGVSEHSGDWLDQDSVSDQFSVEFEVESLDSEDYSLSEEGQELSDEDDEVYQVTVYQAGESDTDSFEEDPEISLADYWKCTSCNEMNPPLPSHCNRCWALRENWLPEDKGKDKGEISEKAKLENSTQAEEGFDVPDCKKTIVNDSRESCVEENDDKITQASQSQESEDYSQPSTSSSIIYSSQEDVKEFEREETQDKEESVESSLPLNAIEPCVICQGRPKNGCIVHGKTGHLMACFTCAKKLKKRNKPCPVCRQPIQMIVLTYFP
MDM2, sequence (P04637 whole entry partner): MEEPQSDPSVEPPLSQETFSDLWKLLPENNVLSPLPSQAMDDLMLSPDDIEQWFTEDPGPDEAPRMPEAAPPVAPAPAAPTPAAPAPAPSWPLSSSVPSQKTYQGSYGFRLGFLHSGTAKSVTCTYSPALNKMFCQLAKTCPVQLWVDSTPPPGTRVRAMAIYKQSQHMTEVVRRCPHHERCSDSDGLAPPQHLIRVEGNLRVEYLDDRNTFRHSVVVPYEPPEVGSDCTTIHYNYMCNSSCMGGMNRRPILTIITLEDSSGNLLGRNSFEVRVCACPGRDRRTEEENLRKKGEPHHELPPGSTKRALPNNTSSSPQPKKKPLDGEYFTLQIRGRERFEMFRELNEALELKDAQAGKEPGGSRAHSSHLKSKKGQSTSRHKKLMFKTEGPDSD

COCCOCCOCCOC(=O)N1[C@@H](CC(C)(C)C)[C@@]2(C(=O)Nc3cc(Cl)ccc32)[C@@H](c2cccc(Cl)c2F)[C@@H]1C(=O)Nc1ccc(C(N)=O)cc1OC [XR-2, 2-(2-(2-methoxyethoxy)ethoxy)ethyl-(2′S,3R,4′S,5′R)-5'-((4-carbamoyl-2-methoxyphenyl)carbamoyl)-6-chloro-4'-(3-chloro-2-fluorophenyl)-2′-neopentyl-2-oxospiro[indoline-3,3′-pyrrolidine]-1′-carboxylate]
HTRF MDM2-p53 binding (displacement) assay: The homogeneous time-resolved fluorescence binding assay proved that XR-2 directly inhibited MDM2–p53 interaction

— publication PMC9081362, “Novel MDM2 Inhibitor XR-2 Exerts Potent Anti-Tumor Efficacy and Overcomes Enzalutamide Resistance in Prostate Cancer” (Frontiers in Pharmacology, 2022)
